pEC50, pIC50: −log10 of the molar value. Like-named read-outs stand apart in the source and are kept apart here.
Columns and labels:
ADORA2A = ADORA2A (Homo sapiens, UniProt P29274); experiment: Calcium Flux ADORA2A Agonist; assay type: cell-based; conditions: for pEC50: read-out: RC50, result type EC50; for Emax: read-out: Max response
Method: (≤0.2% DMSO concentration). Assays were performed in 1× dye loading buffer consisting of 1× Dye (DiscoverX, Calcium No Wash^PLUS kit, Catalog No. 90-0091), 1× Additive A and 2.5 mM Probenecid in HBSS/20 mM HEPES. Probenecid was prepared fresh. Prior to testing, media was aspirated from cells and replaced with 25 μL dye loading buffer. Cells were incubated for 45 min at 37° C. and then 20 min at RT. For agonist determination, 25 μL of 2× compound in HBSS/20 mM HEPES was added using a FLIPR Tetra (MDS). […] 25 μL of 2× sample was added and cells were incubated for 30 min at RT in the dark to equilibrate plate temperature. After incubation, antagonist determination was initiated by addition of 25 μL of 1× compound with 3×EC80 agonist using FLIPR. For both agonist and antagonist formats, activity was measure on a FLIPR Tetra (MDS). Calcium mobilization was monitored for 2 min with a 5 sec baseline read.
FLIPR read—Area under the curve, was calculated for the entire 2 min read.

OPRK1 = OPRK1 (Homo sapiens, UniProt P41145); experiment: cAMP OPRK1 Antagonist; conditions: for Emax: read-out: Max response
Chain of OPRK1 (P41145 whole entry): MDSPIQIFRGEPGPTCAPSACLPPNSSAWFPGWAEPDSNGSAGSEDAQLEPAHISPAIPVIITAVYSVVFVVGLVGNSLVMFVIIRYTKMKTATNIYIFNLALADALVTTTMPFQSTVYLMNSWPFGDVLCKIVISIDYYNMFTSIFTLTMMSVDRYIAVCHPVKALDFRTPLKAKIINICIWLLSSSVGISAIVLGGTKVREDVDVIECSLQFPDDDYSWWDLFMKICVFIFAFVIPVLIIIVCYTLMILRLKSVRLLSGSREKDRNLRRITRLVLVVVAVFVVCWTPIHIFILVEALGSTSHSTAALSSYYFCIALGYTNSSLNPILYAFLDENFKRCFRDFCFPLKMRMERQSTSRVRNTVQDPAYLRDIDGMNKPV
Method: In vitro pharmacological profiling of compounds was done against 78 functional assays for 47 common off-targets (30) by Eurofins DiscoverX Corporation (Fremont, CA, USA) using their SAFETYscan E/IC50 ELECT service (Cat Ref 87-1003DR, Safety47 Panel Dose Response). […] Compounds were tested in a range of 10 concentrations, following a 3-fold serial dilution, starting from 10 μM. The assays were performed utilizing the PathHunter enzyme fragment complementation (EFC) technology, FLIPR®-based cellular screening assays, and KINOMEscan kinase binding assays.
cAMP Hunter cell lines were expanded from freezer stocks. Prior to testing, cells were seeded in a total volume of 20 μL into white walled 384-well microplates and incubated at 37° C. cAMP modulation was determined using the DiscoverX HitHunter cAMP XS+ assay. For Gs agonist determination, cells were incubated with sample to induce response. For Gi agonist determination, cells were incubated with sample in the presence of EC80 forskolin to induce response. For both conditions, media was aspirated from cells and replaced with 15 μL 2:1 HBSS/10 mM HEPES:cAMP XS+ Ab reagent. Intermediate dilution of sample stocks was performed to generate 4× sample in assay buffer (containing 4×EC80 forskolin in the case of antagonist determination). 5 μL of 4× sample was added to cells and incubated at 37° C. or room temperature (RT) for 30 or 60 min. Final assay vehicle concentration was 1%. For antagonist determination, cells were pre-incubated with sample followed by agonist challenge at the EC80 concentration. Media was aspirated from cells and replaced with 10 μL 1:1 HBSS/HEPES:cAMP XS+ Ab reagent. 5 μL of 4× compound was added to the cells and incubated at 37° C. or RT for 30 min. 5 μL of 4×EC80 agonist was added to the cells and incubated at 37° C. or RT for 30 or 60 min. For Gi coupled GPCRs, EC80 forskolin was included. […] Microplates were read following signal generation with a PerkinElmer Envision™ instrument for chemiluminescent signal detection. Compound activity was analyzed using CBIS data analysis suite (ChemInnovation, CA). For Gs agonist mode assays, percentage activity was calculated using the following equation:

ADRB1 = ADRB1 (Homo sapiens, UniProt P08588); experiment: cAMP ADRB1 Agonist; assay type: cell-based; conditions: for Emax: read-out: Max response
Chain of ADRB1 (P08588 whole entry): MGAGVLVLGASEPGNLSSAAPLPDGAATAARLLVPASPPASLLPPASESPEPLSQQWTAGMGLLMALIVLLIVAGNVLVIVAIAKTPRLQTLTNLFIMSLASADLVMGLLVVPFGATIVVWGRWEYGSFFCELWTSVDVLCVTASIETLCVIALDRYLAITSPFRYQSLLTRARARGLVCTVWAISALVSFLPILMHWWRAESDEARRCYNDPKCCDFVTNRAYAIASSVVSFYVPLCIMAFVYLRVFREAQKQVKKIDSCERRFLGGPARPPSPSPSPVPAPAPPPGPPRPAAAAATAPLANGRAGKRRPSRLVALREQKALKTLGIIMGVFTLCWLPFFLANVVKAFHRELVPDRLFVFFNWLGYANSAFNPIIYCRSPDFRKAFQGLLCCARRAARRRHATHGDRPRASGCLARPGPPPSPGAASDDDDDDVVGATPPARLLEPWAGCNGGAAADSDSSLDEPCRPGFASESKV
Method: cAMP Hunter cell lines were expanded from freezer stocks. […] For Gi agonist determination, cells were incubated with sample in the presence of EC80 forskolin to induce response. For both conditions, media was aspirated from cells and replaced with 15 μL 2:1 HBSS/10 mM HEPES:cAMP XS+ Ab reagent. […] 5 μL of 4× sample was added to cells and incubated at 37° C. or room temperature (RT) for 30 or 60 min. Final assay vehicle concentration was 1%. […] Media was aspirated from cells and replaced with 10 μL 1:1 HBSS/HEPES:cAMP XS+ Ab reagent. […] For Gi coupled GPCRs, EC80 forskolin was included. […] Compound activity was analyzed using CBIS data analysis suite (ChemInnovation, CA).

PDE4D2 = target: T1, PDE4D2 (Homo sapiens, UniProt Q08499); experiment: Enzymatic PDE4D2 Inhibitor; assay type: biochemical; conditions: for pIC50: read-out: RC50, result type IC50; for Emax: read-out: Max response
T1 construct: purchased Signal Chem
T1 sequence (Q08499 303-809 limits assumed): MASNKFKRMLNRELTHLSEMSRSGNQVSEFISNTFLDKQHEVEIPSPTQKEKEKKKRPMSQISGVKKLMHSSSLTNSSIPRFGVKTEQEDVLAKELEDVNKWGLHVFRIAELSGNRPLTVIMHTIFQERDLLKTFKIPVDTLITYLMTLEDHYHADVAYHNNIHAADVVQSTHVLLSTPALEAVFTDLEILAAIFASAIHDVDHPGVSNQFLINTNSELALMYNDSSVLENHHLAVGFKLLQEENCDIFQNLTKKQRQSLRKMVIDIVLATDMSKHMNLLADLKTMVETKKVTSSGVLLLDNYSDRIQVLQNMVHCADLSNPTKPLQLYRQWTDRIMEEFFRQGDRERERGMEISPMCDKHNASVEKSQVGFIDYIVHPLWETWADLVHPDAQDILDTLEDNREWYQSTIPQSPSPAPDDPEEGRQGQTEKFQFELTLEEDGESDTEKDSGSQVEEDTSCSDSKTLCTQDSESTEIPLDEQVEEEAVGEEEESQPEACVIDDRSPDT
Method: (§1) Enzyme preparations were sourced from various vendors-AChE (R&D Systems), COX1 and COX2 (BPS Bioscience), MAOA (Sigma), PDE3A and PDE4D2 (Signal Chem). AChE: enzyme and test compound were pre-incubated for 15 min at RT before substrate addition. Acetylthiocholine and DTNB were added and incubated at RT for 30 min. Signal was detected by measuring absorbance at 405 nm. COX1 and COX2: enzyme stocks were diluted in assay buffer (40 mM Tris-HCl, 1×PBS, 0.5 mM Phenol, 0.01% Tween 20 and 10 nM Hematin) and allowed to equilibrate with compounds at RT for 30 min (binding incubation). Arachidonic acid (1.7 μM) and Ampliflu Red (2.5 μM) were prepared and dispended into a reaction plate. Plates were read immediately on a fluorimeter with the emission detection at 590 nm and excitation wavelength 544 nm. MAOA: enzyme and test compound were pre-incubated for 15 min at 37° C. before substrate addition. The reaction was initiated by addition of kynuramine and incubated at 37° C. for 30 min. The reaction was terminated by addition of NaOH. The amount of 4-hydroquinoline formed was determined through spectrofluorometric readout with the emission detection at 380 nm and excitation wavelength 310 nm. PDE3A and PDE4D2: enzyme and test compound were pre-incubated for 15 min at RT before substrate addition. cAMP substrate (at a concentration equal to EC80) was added and incubated at RT for 30 min. Enzyme reaction was terminated by addition of 9 mM IBMX. Signal was detected using the HitHunter® cAMP detection kit. Microplates were transferred to a PerkinElmer Envision™ instrument and read out as described for each assay. […] For enzyme activity assays, percentage inhibition was calculated using the following equation: […]

HTR3A [1] = target: T2, HTR3A (Homo sapiens, UniProt P46098); experiment: Ion Channel HTR3A Opener; assay type: cell-based; conditions: for Emax: Ion Channel HTR3A Opener, read-out: Max response
T2 sequence (P46098 24-478): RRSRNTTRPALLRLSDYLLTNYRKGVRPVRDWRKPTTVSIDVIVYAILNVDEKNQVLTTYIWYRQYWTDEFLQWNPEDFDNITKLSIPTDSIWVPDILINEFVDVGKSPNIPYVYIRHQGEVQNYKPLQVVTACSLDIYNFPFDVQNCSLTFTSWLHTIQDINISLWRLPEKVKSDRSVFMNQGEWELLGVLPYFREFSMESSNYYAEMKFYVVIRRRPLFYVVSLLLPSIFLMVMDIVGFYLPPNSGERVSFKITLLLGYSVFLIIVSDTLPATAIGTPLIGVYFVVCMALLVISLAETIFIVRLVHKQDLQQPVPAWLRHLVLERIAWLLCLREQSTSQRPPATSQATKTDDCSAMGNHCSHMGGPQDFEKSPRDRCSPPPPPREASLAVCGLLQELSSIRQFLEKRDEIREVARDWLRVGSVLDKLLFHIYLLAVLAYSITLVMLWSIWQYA

COX1 = target: T3, COX1 (Homo sapiens, UniProt P23219); experiment: Enzymatic COX1 Inhibitor; assay type: biochemical; conditions: for pIC50: read-out: RC50, result type IC50; for Emax: read-out: Max response
T3 construct: purchased BPS Bioscience
T3 sequence (P23219 24-599): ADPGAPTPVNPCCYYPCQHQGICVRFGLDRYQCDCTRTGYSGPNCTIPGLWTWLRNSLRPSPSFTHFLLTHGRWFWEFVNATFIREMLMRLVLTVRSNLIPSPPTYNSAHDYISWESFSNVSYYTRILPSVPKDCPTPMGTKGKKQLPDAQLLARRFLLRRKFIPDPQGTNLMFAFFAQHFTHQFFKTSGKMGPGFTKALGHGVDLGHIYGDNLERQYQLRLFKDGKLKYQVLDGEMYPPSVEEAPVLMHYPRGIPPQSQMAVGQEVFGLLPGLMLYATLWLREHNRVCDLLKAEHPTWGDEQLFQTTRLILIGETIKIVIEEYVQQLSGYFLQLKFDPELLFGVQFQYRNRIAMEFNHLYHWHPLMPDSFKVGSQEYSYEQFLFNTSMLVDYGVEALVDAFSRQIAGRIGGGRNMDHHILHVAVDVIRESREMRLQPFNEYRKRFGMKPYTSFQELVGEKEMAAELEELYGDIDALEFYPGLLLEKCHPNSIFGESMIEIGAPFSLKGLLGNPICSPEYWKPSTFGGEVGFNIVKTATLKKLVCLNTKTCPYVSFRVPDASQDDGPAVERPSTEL
Method: as §1

DRD2S = DRD2S (Homo sapiens, UniProt P14416); experiment: cAMP DRD2S Agonist; conditions: for Emax: read-out: Max response
Chain of DRD2S (P14416 1-414 isoform P14416-2): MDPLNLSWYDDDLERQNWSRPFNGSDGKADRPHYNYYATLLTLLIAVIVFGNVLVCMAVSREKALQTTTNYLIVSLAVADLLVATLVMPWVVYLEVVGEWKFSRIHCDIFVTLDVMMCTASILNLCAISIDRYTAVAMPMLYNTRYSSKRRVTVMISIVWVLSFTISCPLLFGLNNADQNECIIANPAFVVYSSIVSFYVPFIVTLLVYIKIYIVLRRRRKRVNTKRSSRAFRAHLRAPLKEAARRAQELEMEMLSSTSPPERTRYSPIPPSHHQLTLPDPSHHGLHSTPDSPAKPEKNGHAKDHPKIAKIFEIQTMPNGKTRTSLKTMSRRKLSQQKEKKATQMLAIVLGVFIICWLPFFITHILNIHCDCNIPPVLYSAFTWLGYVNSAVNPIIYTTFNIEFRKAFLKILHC
Method: In vitro pharmacological profiling of compounds was done against 78 functional assays for 47 common off-targets (30) by Eurofins DiscoverX Corporation (Fremont, CA, USA) using their SAFETYscan E/IC50 ELECT service (Cat Ref 87-1003DR, Safety47 Panel Dose Response). […] Compounds were tested in a range of 10 concentrations, following a 3-fold serial dilution, starting from 10 μM.
cAMP Hunter cell lines were expanded from freezer stocks. Prior to testing, cells were seeded in a total volume of 20 μL into white walled 384-well microplates and incubated at 37° C. cAMP modulation was determined using the DiscoverX HitHunter cAMP XS+ assay. For Gs agonist determination, cells were incubated with sample to induce response. For Gi agonist determination, cells were incubated with sample in the presence of EC80 forskolin to induce response. For both conditions, media was aspirated from cells and replaced with 15 μL 2:1 HBSS/10 mM HEPES:cAMP XS+ Ab reagent. Intermediate dilution of sample stocks was performed to generate 4× sample in assay buffer (containing 4×EC80 forskolin in the case of antagonist determination). 5 μL of 4× sample was added to cells and incubated at 37° C. or room temperature (RT) for 30 or 60 min. Final assay vehicle concentration was 1%. For antagonist determination, cells were pre-incubated with sample followed by agonist challenge at the EC80 concentration. Media was aspirated from cells and replaced with 10 μL 1:1 HBSS/HEPES:cAMP XS+ Ab reagent. 5 μL of 4× compound was added to the cells and incubated at 37° C. or RT for 30 min. 5 μL of 4×EC80 agonist was added to the cells and incubated at 37° C. or RT for 30 or 60 min. For Gi coupled GPCRs, EC80 forskolin was included. […] Microplates were read following signal generation with a PerkinElmer Envision™ instrument for chemiluminescent signal detection. Compound activity was analyzed using CBIS data analysis suite (ChemInnovation, CA).

HTR3A [2] = target: T2, HTR3A; experiment: Ion Channel HTR3A Blocker; assay type: cell-based; conditions: for Emax: Ion Channel HTR3A Blocker, read-out: Max response

Chain of ADORA2A (P29274 whole entry): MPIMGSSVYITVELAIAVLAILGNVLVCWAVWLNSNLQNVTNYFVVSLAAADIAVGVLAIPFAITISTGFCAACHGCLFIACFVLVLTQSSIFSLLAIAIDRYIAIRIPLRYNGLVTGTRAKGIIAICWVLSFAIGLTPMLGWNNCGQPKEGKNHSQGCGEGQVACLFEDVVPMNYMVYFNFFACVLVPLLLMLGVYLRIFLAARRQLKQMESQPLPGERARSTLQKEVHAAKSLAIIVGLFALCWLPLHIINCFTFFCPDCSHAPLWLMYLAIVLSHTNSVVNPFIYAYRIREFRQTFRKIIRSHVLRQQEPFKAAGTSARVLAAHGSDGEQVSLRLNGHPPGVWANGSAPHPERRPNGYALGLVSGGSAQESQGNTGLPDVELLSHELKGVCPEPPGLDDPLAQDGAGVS

Row | SMILES | pEC50 (ADORA2A; Calcium Flux ADORA2A Agonist) | pIC50 (OPRK1) | Emax (OPRK1) [%] | pIC50 (PDE4D2; Enzymatic PDE4D2 Inhibitor) | pEC50 (HTR3A [1]) | Emax (HTR3A [1]) [%] | pIC50 (COX1; Enzymatic COX1 Inhibitor) | pEC50 (DRD2S) | Emax (DRD2S) [%] | pIC50 (HTR3A [2]) | Emax (HTR3A [2]) [%] | also measured
1 | CC(C)(C)c1ccc(C#CC(O)c2ccccc2)cc1 (racemic) [Compound 3.3, rac-3-(4-(tert-butyl)phenyl)-1-phenylprop-2-yn-1-ol] | < 5.00 | < 5.00 | 8.9 | < 5.00 | < 5.00 | 0 | < 5.00 | < 5.00 | 0 | < 5.00 | 50.1 | Emax (ADORA2A): 1.8%; pEC50 (ADRB1): < 5.00; Emax (ADRB1): 0.6%; Emax (PDE4D2): 0%; Emax (COX1): 9.9%
2 | Clc1cccc(C#Cc2n[nH]c3ncccc23)c1 [Compound 10.1, 3-((3-chlorophenyl)ethynyl)-1H-pyrazolo[3,4-b]pyridine] | < 5.00 | < 5.00 | 0 | < 5.00 | < 5.00 | 3.4 | < 5.00 | < 5.00 | 15 | < 5.00 | 19.7 | Emax (ADORA2A; Calcium Flux ADORA2A Agonist): 3%; Emax (ADRB1; cAMP ADRB1 Agonist): 0%; pEC50 (ADRB1; cAMP ADRB1 Agonist, read-out: RC50, result type EC50): < 5.00; Emax (PDE4D2; Enzymatic PDE4D2 Inhibitor): 2.7%; Emax (COX1; Enzymatic COX1 Inhibitor): 0%
